Laboratory results taken from PMC11729419, “Thiol-Reactive or Redox-Active: Revising a Repurposing Screen Led to a New Invalidation Pipeline and Identified a True Noncovalent Inhibitor Against Papain-like Protease from SARS-CoV-2” (ACS Pharmacology & Translational Science, 2024).
Where a name gives a salt, the structure may show the parent alone. Read-outs that look alike come from different tables or passages of the source. * marks the point of attachment. AMC = Cc1cc(=O)oc2cc(N*)ccc12; Cbz = O=C(OCc1ccccc1)*

Legend:
SARS-CoV-2 PLpro-NAB [1] = biological target: T1, SARS-CoV-2 PLpro-NAB (Severe acute respiratory syndrome coronavirus 2, UniProt P0DTD1); test: biochemical; details: for Inhibitory activity on retest in 1 mM L-cysteine: 50% inhibition at 20 μM
SARS-CoV-2 PLpro-NAB [2] = biological target: T1, SARS-CoV-2 PLpro-NAB; assay type: biochemical
[3] = Table S1, 20 µM, DTT buffer, average (SD)
[4] = Table S1, 20 µM, L-cysteine buffer, average (SD)
[5] = Table S1, DTT buffer, read-out: HP PLpro-NAB SARS-CoV-2 IC50 [µM] triplicates DTT BUFFER
[6] = Table S1, L-cysteine buffer, read-out: HP PLpro-NAB SARS-CoV-2 IC50 [µM] duplicates L-CYS BUFFER
[7] = hit confirmation, 20 μM, 1 mM DTT buffer, average (SD), 20 μM PR619 = 100%, DMSO = 0%
[8] = hit profiling, 20 μM, 1 mM L-cys buffer, average (SD), 20 μM PR619 = 100%
[9] = read-out: HP PLpro-NAB IC50 [μM] duplicates 1 mM L-cys buffer, hit profiling, 1 mM L-cys buffer
[10] = read-out: HP PLpro-NAB IC50 [μM] triplicates 1 mM DTT buffer, hit profiling, 1 mM DTT buffer
[11] = Table S1, 20 µM, DTT buffer, average (SD), read-out: HC PLpro-NAB SARS-CoV-2 inhibition [%] 20 µM triplicates DTT BUFFER
[12] = Table S1, 20 µM, L-cysteine buffer, average (SD), read-out: HP PLpro-NAB SARS-CoV-2 inhibition [%] 20 µM triplicates L-CYS BUFFER

| Compound | HC PLpro-NAB SARS-CoV-2 inhibition [%] 20 µM triplicates DTT BUFFER (SARS-CoV-2 PLpro-NAB [1]; [3]) | HP PLpro-NAB SARS-CoV-2 inhibition [%] 20 µM triplicates L-CYS BUFFER (SARS-CoV-2 PLpro-NAB [1]; [4]) | IC50 (SARS-CoV-2 PLpro-NAB [1]; [5]) [µM] | IC50 (SARS-CoV-2 PLpro-NAB [1]; [6]) [µM] | also measured |
| --- | --- | --- | --- | --- | --- |
| SF1670 | 183.62 (4.27) % | -32.73 (4.18) % | 0.25 | > 20 |  |
| COc1cc([C@@H]2c3cc4c(cc3[C@@H](O[C@@H]3O[C@@H]5CO[C@@H](C)O[C@H]5[C@H](O)[C@H]3O)[C@H]3COC(=O)[C@H]23)OCO4)cc(OC)c1O [Etoposide] |  |  | > 20 | > 20 |  |
| CC1(C)CCC2=C(O1)C(=O)c1ccccc1C2=O [Alpha Lapachone] | 146.26 (3.11) % | -6.97 (8.44) % | 4.43 | > 20 |  |
| O=C(Nc1ccccc1-c1cn2c(CN3CCNCC3)csc2n1)c1cnc2ccccc2n1 [SRT 1720] |  |  |  |  | Inhibitory activity on retest in 1 mM L-cysteine (SARS-CoV-2 PLpro-NAB [1]): retained their inhibitory activity; HC PLpro-NAB inhibition [%] 20 μM triplicates 1 mM DTT buffer (SARS-CoV-2 PLpro-NAB [1]; [7]): 109.60 (16.57) %; HP PLpro-NAB inhibition [%] 20 μM triplicates 1 mM L-cys buffer (SARS-CoV-2 PLpro-NAB [1]; [8]): 169.11 (0.11) %; IC50 (SARS-CoV-2 PLpro-NAB [1]; [9]): 0.82 µM; IC50 (SARS-CoV-2 PLpro-NAB [1]; [10]): > 20 µM |
| O=C(O)c1cc(O)c2c(c1)[C@H]([C@H]1c3cc(C(=O)O)cc(O)c3C(=O)c3c(O[C@@H]4O[C@H](CO)[C@@H](O)[C@H](O)[C@H]4O)cccc31)c1cccc(O[C@@H]3O[C@H](CO)[C@@H](O)[C@H](O)[C@H]3O)c1C2=O [sennoside A] |  |  |  |  | inhibition at 20 µM (SARS-CoV-2 PLpro-NAB [1]; hit confirmation, 20 μM, 1 mM DTT buffer, average (SD), 20 μM PR619 = 100%, DMSO = 0%, read-out: HC PLpro-NAB inhibition [%] 20 μM triplicates 1 mM DTT buffer): 160%; inhibition at 20 µM (SARS-CoV-2 PLpro-NAB [1]; hit profiling, 20 μM, 1 mM L-cys buffer, average (SD), 20 μM PR619 = 100%, read-out: HP PLpro-NAB inhibition [%] 20 μM triplicates 1 mM L-cys buffer): 149% |
| NC(Cc1cc(O)c(O)cc1O)C(=O)O (racemic) [6-Hydroxy-DL-DOPA] | 81.47 (1.21) % | 4.81 (4.61) % | > 20 | > 20 |  |
| CC[n+]1c(-c2ccccc2)c2cc(N)ccc2c2ccc(N)cc21 [Homidium Bromide] |  |  | 13.7 | > 20 | inhibition at 20 µM (SARS-CoV-2 PLpro-NAB [1]; [11]): 149%; inhibition at 20 µM (SARS-CoV-2 PLpro-NAB [1]; [12]): 18.3% |
| O=C1C(=O)c2ccccc2-c2ccccc21 [9,10-Phenanthrenequinone] |  |  |  | > 20 | inhibition at 20 µM (SARS-CoV-2 PLpro-NAB [1]; [12]): -40.8% |
| CC(C)Nc1cccnc1N1CCN(C(=O)c2cc3cc(NS(C)(=O)=O)ccc3[nH]2)CC1 [Delavirdine (mesylate), Delavirdine] |  |  |  |  | IC50 (SARS-CoV-2 PLpro-NAB [1]; HP PLpro-NAB SARS-CoV-2 IC50 [µM] duplicates L-CYS BUFFER): > 20 µM; IC50 (SARS-CoV-2 PLpro-NAB [1]; HP PLpro-NAB SARS-CoV-2 IC50 [µM] triplicates DTT BUFFER): > 20 µM |
| COCCn1c2c([n+](Cc3cnccn3)c1C)C(=O)c1ccccc1C2=O [YM-155] |  |  | 17.9 | > 20 | inhibition at 20 µM (SARS-CoV-2 PLpro-NAB [1]; [11]): 139%; inhibition at 20 µM (SARS-CoV-2 PLpro-NAB [1]; [12]): -5.61% |
| O=c1ccc2[n+]([O-])c3ccc(O)cc3oc-2c1 [Resazurin (sodium salt), Resazurin] |  |  | > 20 | > 20 |  |
| N#CSc1cc(SC#N)c(N)nc1N [PR-619] |  |  |  |  | Inhibition in L-cysteine buffer versus DTT buffer (dose-response) (SARS-CoV-2 PLpro-NAB [1]; 1 mM L-cysteine vs 1 mM DTT): did not show variations in inhibition potency or thermal stability; Inhibitory activity on retest in 1 mM L-cysteine (SARS-CoV-2 PLpro-NAB [1]): retained their inhibitory activity; HC PLpro-NAB inhibition [%] 20 μM triplicates 1 mM DTT buffer (SARS-CoV-2 PLpro-NAB [1]; [7]): 101.31 (1.54) %; HP PLpro-NAB inhibition [%] 20 μM triplicates 1 mM L-cys buffer (SARS-CoV-2 PLpro-NAB [1]; [8]): 106.60 (1.05) %; IC50 (SARS-CoV-2 PLpro-NAB [1]; [9]): 3.7 µM; IC50 (SARS-CoV-2 PLpro-NAB [1]; [10]): 1.39 µM |
| Nc1ccc(O)c2ncccc12 [PD119507] | 186.40 (4.35) % | -16.42 (5.8) % | 0.065 | > 20 |  |
| Cc1cc(-c2ccc(/N=N/c3ccc4c(S(=O)(=O)O)cc(S(=O)(=O)O)c(N)c4c3O)c(C)c2)ccc1/N=N/c1ccc2c(S(=O)(=O)O)cc(S(=O)(=O)O)c(N)c2c1O [Evans Blue] |  |  | 8.68 | > 20 | inhibition at 20 µM (SARS-CoV-2 PLpro-NAB [1]; [11]): 126%; inhibition at 20 µM (SARS-CoV-2 PLpro-NAB [1]; [12]): -67.8% |
| Oc1c(Cl)cc(Cl)c(Cl)c1Cc1c(O)c(Cl)cc(Cl)c1Cl [Hexachlorophene] |  |  |  |  | IC50 (SARS-CoV-2 PLpro-NAB [1]; HP PLpro-NAB SARS-CoV-2 IC50 [µM] duplicates L-CYS BUFFER, Table S1, L-cysteine buffer): > 20 µM; IC50 (SARS-CoV-2 PLpro-NAB [1]; HP PLpro-NAB SARS-CoV-2 IC50 [µM] triplicates DTT BUFFER, Table S1, DTT buffer): > 20 µM; inhibition at 20 µM (SARS-CoV-2 PLpro-NAB [1]; read-out: HC PLpro-NAB SARS-CoV-2 inhibition [%] 20 µM triplicates DTT BUFFER): 109%; inhibition at 20 µM (SARS-CoV-2 PLpro-NAB [1]; read-out: HP PLpro-NAB SARS-CoV-2 inhibition [%] 20 µM triplicates L-CYS BUFFER): -18.3% |
| COc1cccc2c(NCc3ccccc3)nc(-n3c(N)nc4ccccc43)nc12 [ML240] | 93.76 (13.43) % | -11.93 (4.14) % | > 20 | > 20 |  |
| Cc1nc2c(=O)n(C)c(=O)nc-2n(C)n1 [3-Methyl Toxoflavin] | 181.38 (6.76) % | -26.71 (3.86) % | 0.074 | > 20 |  |

| Compound | HC PLpro-NAB SARS-CoV-2 inhibition [%] 20 µM triplicates DTT BUFFER (SARS-CoV-2 PLpro-NAB [1]; [3]) | HP PLpro-NAB SARS-CoV-2 inhibition [%] 20 µM triplicates L-CYS BUFFER (SARS-CoV-2 PLpro-NAB [1]; [4]) | IC50 (SARS-CoV-2 PLpro-NAB [1]; [5]) [µM] | IC50 (SARS-CoV-2 PLpro-NAB [1]; [6]) [µM] | also measured |
| --- | --- | --- | --- | --- | --- |
| Ro-08-2750 | 119.29 (1.83) % | -33.99 (8.82) % | 0.4 | > 20 |  |
| Cc1cc(-c2ccc(/C=C3/SC(=Nc4ccc(Cl)c(C(=O)O)c4)NC3=O)o2)c([N+](=O)[O-])cc1C [PT 1] | 87.07 (2.59) % | -36.09 (5.10) % | 9.32 | > 20 |  |
| Cbz-LRGG-{AMC} |  |  |  |  | Km (SARS-CoV-2 PLpro-NAB [2]): 45.2 µM; Vmax (SARS-CoV-2 PLpro-NAB [2]): 173 041 /min |
| CC[N+](C)(CC)CCC[n+]1c(-c2ccccc2)c2cc(N)ccc2c2ccc(N)cc21.[I-].[I-] [Propidium-Iodide] | 135.55 (3.03) % | 14.90 (7.41) % | 0.24 | > 20 |  |
| Ryuvidine | 159.90 (1.27) % | -33.69 (4.70) % | 0.26 | > 20 |  |
| Chicago-Sky-Blue-6b | 51.02 (1.78) % | 3.64 (5.37) % | > 20 | > 20 |  |
| CCOC(=O)C1=C(C)N=c2sc(=Cc3ccc(OCC(=O)O)cc3)c(=O)n2C1c1ccc(SC)cc1 (stereo not drawn) [ML120] | 82.78 (2.58) % | -56.07 (10.54) % | 3.14 | > 20 |  |
| CN(C)CCNc1nc2cc(O)ccc2c2c1C(=O)c1ccccc1-2.Cl.Cl [TAS-103 (dihydrochloride)] | 154.91 (1.47) % | 17.75 (9.12) % | 5.94 | > 20 |  |
| Cc1cccc2c3c(ccc12)C1=C(C(=O)C3=O)[C@@H](C)CO1 [Dihydrotanshinone I] |  |  | 0.92 | > 20 | inhibition at 20 µM (SARS-CoV-2 PLpro-NAB [1]; [11]): 80.7%; inhibition at 20 µM (SARS-CoV-2 PLpro-NAB [1]; [12]): -176% |
| O=c1c(O)cccc2cc(O)c(O)c(O)c12 [purpurogallin] |  |  |  |  | IC50 (SARS-CoV-2 PLpro-NAB [1]; HP PLpro-NAB IC50 [μM] duplicates 1 mM L-cys buffer, hit profiling, 1 mM L-cys buffer): 1.03 µM; IC50 (SARS-CoV-2 PLpro-NAB [1]; HP PLpro-NAB IC50 [μM] triplicates 1 mM DTT buffer, hit profiling, 1 mM DTT buffer): > 20 µM |
| C[n+]1c2cc(N)ccc2cc2ccc(N)cc21.[Cl-] [Acriflavinium Hydrochloride] | 27.57 (6.10) % | -99.55 (4.20) % | 12.4 | > 20 |  |
| Bacitracin [Bacitracin (Zinc)] | 67.28 (8.42) % | 6.99 (8.69) % | 10.2 | > 20 |  |
| O=C1C=CC(=O)c2c(O)cccc21 [Juglone] |  |  | > 20 | > 20 | inhibition at 20 µM (SARS-CoV-2 PLpro-NAB [1]; [11]): 83.7%; inhibition at 20 µM (SARS-CoV-2 PLpro-NAB [1]; [12]): -14.8% |
| C[C@H]1COC2=C1C(=O)C(=O)c1c2ccc2c1CCCC2(C)C [Cryptotanshinone] |  |  |  |  | inhibition at 20 µM (SARS-CoV-2 PLpro-NAB [1]; [11]): 40.7%; inhibition at 20 µM (SARS-CoV-2 PLpro-NAB [1]; [12]): -71.4% |
| CC1(C)CCC2=C(O1)c1ccccc1C(=O)C2=O [Beta-Lapachone] |  |  | 4.71 | > 20 | inhibition at 20 µM (SARS-CoV-2 PLpro-NAB [1]; [11]): 175%; inhibition at 20 µM (SARS-CoV-2 PLpro-NAB [1]; [12]): -37.4% |
| Cn1cccc1/C=C1\C(=O)NC(=O)c2ccccc21 [BYK-204165] | 137.58 (2.88) % | 7.10 (11.9) % | 6.17 | > 20 |  |
| CC1(C)C(=O)N=C2C1=C(O)C(=O)c1ccccc12 [BVT-948] | 154.88 (0.27) % | -16.22 (16.3) % | 0.39 | > 20 |  |
